From patent publication US9783505B2, “Substituted diaminopyrimidyl compounds, compositions thereof, and methods of treatment therewith” (Signal Pharmaceuticals, LLC, priority 2013, dated 2017)

What follows are compounds tested against T1, His-PKC-theta (Homo sapiens, UniProt Q04759) (assay: PKC-theta Assay (384-well time resolved fluorescence, IMAP TR-FRET)). Details: Table 2; read-out: Act. Level (IC50 in the PKC-theta Assay).
T1 construct: His; purchased Invitrogen
Assay type: biochemical
In short: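 Fam-labeled S6-derived peptide (200 nM) and 10 μM ATP were reacted with 142 pM enzyme for 2 h at room temperature in HEPES pH 7.6 buffer with MgCl2, DTT, Triton X-100, BSA and EDTA. The reaction was stopped with IMAP progressive binding reagent plus Tb donor, incubated overnight, then TR-FRET read.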

T1 sequence (Q04759 whole entry): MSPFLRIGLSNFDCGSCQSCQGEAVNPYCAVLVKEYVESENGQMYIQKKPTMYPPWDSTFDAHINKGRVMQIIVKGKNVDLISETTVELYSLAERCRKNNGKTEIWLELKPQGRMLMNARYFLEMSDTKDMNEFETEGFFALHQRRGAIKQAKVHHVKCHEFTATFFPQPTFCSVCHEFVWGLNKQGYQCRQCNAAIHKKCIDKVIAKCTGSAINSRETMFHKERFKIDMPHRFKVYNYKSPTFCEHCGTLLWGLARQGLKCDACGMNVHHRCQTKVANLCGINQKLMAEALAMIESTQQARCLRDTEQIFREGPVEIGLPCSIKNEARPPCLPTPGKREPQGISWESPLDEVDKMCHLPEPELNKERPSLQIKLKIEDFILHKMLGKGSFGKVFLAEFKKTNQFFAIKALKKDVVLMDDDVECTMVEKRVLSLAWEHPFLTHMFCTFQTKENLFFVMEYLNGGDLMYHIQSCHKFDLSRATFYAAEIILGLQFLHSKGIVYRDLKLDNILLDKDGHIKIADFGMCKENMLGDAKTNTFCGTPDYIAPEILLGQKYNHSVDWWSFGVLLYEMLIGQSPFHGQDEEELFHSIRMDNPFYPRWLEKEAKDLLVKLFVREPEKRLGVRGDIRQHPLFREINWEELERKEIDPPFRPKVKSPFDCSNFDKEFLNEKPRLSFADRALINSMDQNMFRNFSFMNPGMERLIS

IC50, 0.1 to 0.8 µM:
CC1(C)C[C@H](Nc2nc(NCCc3ccc(S(=O)(=O)N4CCOCC4)cc3)ncc2C#N)CC[C@@H]1O [Cmpd 177]
CC1(C)C[C@H](Nc2nc(NCCc3ccc(OC4CCCC4)cc3)ncc2C#N)CC[C@@H]1O [Cmpd 51]
CC1(C)C[C@H](Nc2nc(NCCc3cccc(S(C)(=O)=O)c3)ncc2C#N)CC[C@@H]1O [Cmpd 173]
CC1(C)[C@@H](O)C[C@H]1Nc1nc(NCCc2ccc(C#N)c(C(F)(F)F)c2)ncc1C#N [Cmpd 141]
CC1(C)C[C@H](Nc2nc(NCCc3ccc(S(=O)(=O)N4CCC4)cc3)ncc2C#N)CC[C@@H]1O [Cmpd 176]
CC1(C)[C@@H](O)C[C@H]1Nc1nc(NCC(F)(F)c2ccccc2)ncc1C#N [Cmpd 43]
COCCOc1ccc(CCNc2ncc(C#N)c(N[C@@H]3C[C@H](O)C3(C)C)n2)cc1 [Cmpd 109]
CC1(C)C[C@H](Nc2nc(NCCc3ccc(N4CCCCC4)cc3)ncc2C#N)CC[C@@H]1O [Cmpd 83]
Cc1nnnn1-c1ccc(CCNc2ncc(C#N)c(N[C@@H]3CC[C@H](O)C(C)(C)C3)n2)cc1 [Cmpd 167]
CN(C)c1ccc(CCNc2ncc(C#N)c(N[C@@H]3C[C@H](O)C3(C)C)n2)cc1 [Cmpd 133]
CC1(C)C[C@H](Nc2nc(NCCc3ccc(C#N)c(C(F)(F)F)c3)ncc2C#N)CC[C@@H]1O [Cmpd 140]
N#Cc1cnc(NCc2ccccc2Cl)nc1N[C@H]1CC[C@@H](O)CC1 [Cmpd 9]
CC1(C)[C@@H](O)C[C@H]1Nc1nc(NCCc2cccc(C(F)(F)F)c2)ncc1C#N [Cmpd 45]
CC1(C)C[C@H](Nc2nc(NCCc3ccc(Cl)c(Cl)c3)ncc2C#N)CC[C@@H]1O [Cmpd 101]
CC1(C)[C@@H](Nc2nc(NCCc3cccc(Cl)c3)ncc2C#N)C[C@H]1C(N)=O [Cmpd 164]
CC1(C)C[C@H](Nc2nc(NCCc3ccccc3O)ncc2C#N)CC[C@@H]1O [Cmpd 67]
N#Cc1cnc(NCCc2cccc(F)c2)nc1N[C@H]1CC[C@@H](O)CC1 [Cmpd 198]

IC50, < 0.1 µM:
CC1(C)C[C@H](Nc2nc(NCCc3ccc(-n4ccnc4)c(Cl)c3)ncc2C#N)CC[C@@H]1O [Cmpd 180]
N#Cc1cnc(NCc2cc(F)ccc2C(F)(F)F)nc1N[C@H]1CC[C@@H](O)CC1 [Cmpd 3]
Cc1nnnn1-c1ccccc1CNc1ncc(C(F)(F)F)c(NC2CCC(O)C(C)(C)C2)n1 (stereo not shown) [Cmpd 2]
CC1(C)[C@@H](C(N)=O)C[C@H]1Nc1nc(NCCc2cccc(Cl)c2)ncc1C#N [Cmpd 165]
CC1(C)C[C@@H](O)CC[C@H]1Nc1nc(NCCc2cccc(Cl)c2)ncc1C#N [Cmpd 190]
CC1(C)C[C@H](Nc2nc(NCCc3ccc(S(N)(=O)=O)c(Cl)c3)ncc2C#N)CC[C@@H]1O [Cmpd 186]

IC50, 0.8 to 2 µM:
N#Cc1cnc(NCc2ccccc2N2CCOCC2)nc1N[C@H]1CC[C@@H](O)CC1 [Cmpd 13]
CC(F)(F)COc1ccccc1CCNc1ncc(C#N)c(N[C@@H]2CC[C@H](O)C(C)(C)C2)n1 [Cmpd 152]
CNC(=O)c1cccc(CCNc2ncc(C#N)c(N[C@@H]3CC[C@H](O)C(C)(C)C3)n2)c1 [Cmpd 131]

IC50, 2 to 10 µM:
CN(C)C(=O)c1cccc(CCNc2ncc(C#N)c(N[C@@H]3CC[C@H](O)C(C)(C)C3)n2)c1 [Cmpd 61]
CN1CCN(c2ccccc2CNc2ncc(C#N)c(N[C@H]3CC[C@@H](O)CC3)n2)CC1 [Cmpd 27]
COc1ccc(C(CNc2ncc(C#N)c(N[C@@H]3CC[C@H](O)C(C)(C)C3)n2)N2CCOCC2)cc1 (stereo partly shown) [Cmpd 39]

Same assay, conditions: read-out: Act. Level (IC50 in the PKC-theta Assay)

IC50, 2 to 10 µM:
Cc1nc(CCNc2ncc(C#N)c(N[C@@H]3CC[C@H](O)C(C)(C)C3)n2)no1 [Cmpd 195]
CC1(C)C[C@H](Nc2nc(NCCn3c(=O)[nH]c4ccccc43)ncc2C#N)CC[C@@H]1O [Cmpd 293]
CC1(C)C[C@H](Nc2nc(NCCc3c[nH]c4ccc(OC(F)(F)F)cc34)ncc2C#N)CC[C@@H]1O [Cmpd 171]
N#Cc1cnc(NCCc2ccc3ccccc3n2)nc1N[C@H]1CC[C@@H](O)CC1 [Cmpd 150]

IC50, < 0.1 µM:
CC(F)(F)COc1ncncc1CNc1ncc(C#N)c(N[C@@H]2C[C@H](O)C2(C)C)n1 [Cmpd 16]
CC1(C)[C@@H](O)C[C@H]1Nc1nc(NCc2cncnc2OCCC(F)(F)F)ncc1C(F)(F)F [Cmpd 2]
COC1CC(Nc2nc(NCc3cnccc3C(F)(F)F)ncc2C(F)(F)F)C1(C)C (stereo not shown) [Cmpd 74]
O[C@H]1CC[C@@H](Nc2nc(NCc3cnccc3C(F)(F)F)ncc2C(F)(F)F)CC1 [Cmpd 69]
N#Cc1cnc(NCc2cnccc2C(F)(F)F)nc1NC1CC(O)C1 (stereo not shown) [Cmpd 90]
CCc1ccc2c(c1)C(CCNc1ncc(C#N)c(N[C@H]3CC[C@@H](C(N)=O)CC3)n1)C(=O)N2 (stereo partly shown) [Cmpd 180]
Cc1ccc(Oc2ncncc2CNc2ncc(C#N)c(N[C@H]3CC[C@@](C)(O)CC3)n2)cc1 [Cmpd 28]
Cc1ccc(Oc2ncncc2CNc2ncc(C(F)(F)F)c(N[C@H]3CC[C@@](C)(O)CC3)n2)cc1 [Cmpd 31]
CCc1ccc2c(c1)C(CCNc1ncc(C#N)c(N[C@@H]3C[C@H](O)C3(C)C)n1)C(=O)N2 (stereo partly shown) [Cmpd 261]
C[C@]1(O)CC[C@@H](Nc2nc(NCc3cncnc3-c3ccccc3)ncc2C(F)(F)F)CC1 [Cmpd 80]
CCc1ncncc1CNc1ncc(C#N)c(NC2CC(C)(O)C2(C)C)n1 (stereo not shown) [Cmpd 65]
CC(F)(F)COc1ncncc1CNc1ncc(C#N)c(N[C@H]2CC[C@@](C)(C(N)=O)CC2)n1 [Cmpd 160]

IC50, 0.1 to 0.8 µM:
CC1(C)C[C@H](Nc2nc(NCc3cncnc3C(F)(F)F)ncc2C#N)CC[C@H]1O [Cmpd 159]
CC1(C)[C@@H](CO)C[C@@H]1Nc1nc(NCc2cnccc2C(F)(F)F)ncc1C(F)(F)F [Cmpd 131]
CC1(C)[C@H](O)C[C@@H]1Nc1nc(NCc2cncnc2-c2ccc(F)cc2)ncc1C(F)(F)F [Cmpd 97]
Cc1cccc2c(CCNc3ncc(C#N)c(N[C@@H]4CC[C@H](O)C(C)(C)C4)n3)c[nH]c12 [Cmpd 172]
CC(C)(O)[C@H]1CC[C@H](Nc2nc(NCc3cnccc3C(F)(F)F)ncc2C#N)CC1 [Cmpd 101]
CC1(C)[C@@H](O)C[C@H]1Nc1nc(NCCc2cccs2)ncc1C#N [Cmpd 189]
CCc1ncncc1CNc1ncc(C#N)c(NC2CC(C)(O)C2(C)C)n1 (stereo not shown) [Cmpd 135]
CC1(C)C[C@H](Nc2nc(NCCC3C(=O)Nc4ccccc43)ncc2C#N)CC[C@H]1O (stereo partly shown) [Cmpd 158]
CC1(C)C[C@H](Nc2nc(NCCc3cccc4cccnc34)ncc2C#N)CC[C@@H]1O [Cmpd 147]
CCc1ncncc1CNc1ncc(C#N)c(N[C@@H]2C[C@@H](O)C2(C)C)n1 [Cmpd 128]
CC1(C)C[C@H](Nc2nc(NCCC3(O)C(=O)Nc4ccccc43)ncc2C#N)CC[C@@H]1O (stereo partly shown) [Cmpd 184]
O[C@H]1C[C@H](Nc2nc(NCc3cnccc3C(F)(F)F)ncc2C(F)(F)F)C1 [Cmpd 94]

IC50, 0.8 to 2 µM:
CCc1ncncc1CNc1ncc(C#N)c(N[C@H]2C[C@H](O)C2(C)C)n1 [Cmpd 142]
